This note sets out measurements from patent US10800741B2 (ANCUREALL PHARMACEUTICAL (SHANGHAI) CO., LTD., priority 2017, dated 2020).

Format in all cases: cell-based, Human
Assay [1] relates to Hep3B2 (FGFR3/4+++). The assay can be described thus: In vitro growth inhibition of Hep3B2 tumor cells (MTT/CCK8). To be noted: Homo sapiens, Hep3B; in vitro growth inhibition (or induction of apoptosis), cells cultured 3 to 5 days, MTT (CCK8); read-out: IC50 Hep3B2 (FGFR3/4+++). The text has this: (§1) Tumor cell lines are an effective model for studying in vitro tumor growth inhibition. In the present invention, a representative tumor cell line was selected to determine the cell growth inhibition activity of the present compound. All cell lines used were from ATCC, DSMZ, and cell banks of the Chinese Academy of Sciences. Cell culture conditions and methods were in accordance with the requirements of each cell line. Cells were subcultured in vitro for no more than 3 generations each time, and as required, single-clone purification and identification of cell lines could be carried out.
(§2) The cell culture media used were RPMI1640 (Gibco), DMEM (Gibco), MEM (Gibco), L15 (Gibco), IMDM (Gibco), McCOY'S5A, and William's (Gibco). 5-20% fetal bovine serum (Gibco), 1% double antibiotic, 2 mM glutamine, or 1 mM sodium pyruvate were added. The names, species, major gene characteristics, culture media and cell sources of the cell lines used are shown in table 1, wherein “amp” refers to gene amplification. “+++” refers to gene overexpression. The main genetic characteristics of cells were obtained from the COSMIC Cell Lines Project and related research papers, respectively.
(§3) Adherent cells were digested with 0.25% trypsin-EDTA (Gibco). Suspension culture cells were collected by centrifugation (1700 rpm, 3 minutes). The supernatant was discarded and the cells were counted. According to each cell growth cycle, different concentrations of cells were prepared (5˜10×10^4 cells per ml), and inoculated to 96-well plates (Corning), with 100 μl per well, and incubated overnight at 37° C., 5% CO2. The next day, the test compound was added to the cultured cells (2 wells in parallel). The final concentration of the solvent was less than 1/1,000. The cells were further cultured for 3 to 5 days and assayed by MTT.
(§4) The compound was stored at a concentration of 10 mM at −20° C. and diluted to 2- or 10-fold series prior to use. BGJ398 and AC220 were synthesized according to the methods of WO2006420A1 and US2007232604A1, respectively.
(§5) The adherent cells were taken out from the cell culture medium, and immediately added to a freshly prepared complete medium containing 10% CCK8 (5% FBS), 100 ul per hole. The suspended cells were directly added to a CCK8 reagent until reaching a final concentration of 10% and cultured for 1 to 4 hours.
(§6) T=optical density of drug-treated cell wells−optical density of blank control wells; T0=optical density of cell wells before drug treatment−optical density of blank control wells; C=optical density of solvent control wells−optical density of blank control wells. […] The experiments were repeated 1 to 3 times and a statistical analysis of data was conducted.

Assay [2] has as its system MOLM-13 (FLT3-ITD). The assay can be described thus: In vitro growth inhibition of MOLM-13 tumor cells (MTT/CCK8). The settings on record: Homo sapiens, MOLM-13; in vitro growth inhibition (or induction of apoptosis), cells cultured 3 to 5 days, MTT (CCK8); read-out: IC50 MOLM-13 (FLT3-ITD).
Assay [3] deals with KATO III (FGFR2 amp). The assay can be described thus: In vitro growth inhibition of KATO III tumor cells (MTT/CCK8). To be noted: Homo sapiens, KATO III; in vitro growth inhibition (or induction of apoptosis), cells cultured 3 to 5 days, MTT (CCK8); read-out: IC50 KATO III (FGFR2 amp).
For assay [4], the system named is Kasumi-1 (KIT N822K). The assay can be described thus: In vitro growth inhibition of Kasumi-1 tumor cells (MTT/CCK8). The settings on record: Homo sapiens, Kasumi 1; in vitro growth inhibition (or induction of apoptosis), cells cultured 3 to 5 days, MTT (CCK8); read-out: IC50 Kasumi-1 (KIT N822K).
Description: as §1, §2, §3, §4, §5, §6

Assay [5] relates to Karpas 299 (NPM-ALK). Briefly: In vitro growth inhibition of Karpas 299 tumor cells (MTT/CCK8). The settings on record: Homo sapiens, KARPAS-299; in vitro growth inhibition (or induction of apoptosis), cells cultured 3 to 5 days, MTT (CCK8); read-out: IC50 Karpas 299 (NPM-ALK).
Description: as §1, §2, §3, §4, §5, §6

Assay [6] concerns KCL-22 (BCR-ABL). The assay can be described thus: In vitro growth inhibition of KCL-22 tumor cells (MTT/CCK8). The settings on record: Homo sapiens, KCL-22; in vitro growth inhibition (or induction of apoptosis), cells cultured 3 to 5 days, MTT (CCK8); read-out: IC50 KCL-22 (BCR-ABL).
Description: as §1, §2, §3, §4, §5, §6

Assay [7] has as its system H1703 (PDGFRa amp). The assay can be described thus: In vitro growth inhibition of H1703 tumor cells (MTT/CCK8). To be noted: Homo sapiens, NCI-H1703; in vitro growth inhibition (or induction of apoptosis), cells cultured 3 to 5 days, MTT (CCK8); read-out: IC50 H1703 (PDGFRa amp).
Description: as §1, §2, §3, §4, §5, §6

Assay [8] concerns H1581 (FGFR1 amp). Briefly: In vitro growth inhibition of H1581 tumor cells (MTT/CCK8). The settings on record: Homo sapiens, NCI-H1581; in vitro growth inhibition (or induction of apoptosis), cells cultured 3 to 5 days, MTT (CCK8); read-out: IC50 H1581 (FGFR1 amp).

Regarding `CNC(=O)c1cc2c(Oc3ccc(NC(=O)Nc4cc(C(C)(C)C)on4)c(Cl)c3)ccnc2cc1OC` [Compound 14, 4-{4-[3-(5-tert-butyl-isoxazol-3-yl)-ureido]-3-chloro-phenoxy}-7-methoxyquinolin-6-carboxylic acid methylamide], the IC50 in assay [1] was determined as 24.1 nM; in assay [2], 5.56 nM; in assay [3], 2.16 nM; in assay [4] it was 33.3 nM; in assay [5], 725 nM; in assay [6], 8.97 nM. Also, the IC50 worked out at 10.2 nM in assay [7] and 10.5 nM in assay [8].
In the case of `CNC(=O)c1cc2c(Oc3ccc(NC(=O)Nc4cc(C(C)(C)C)no4)c(Cl)c3)ccnc2cc1OC` [Compound 15, 4-{4-[3-(3-tert-butyl-isoxazol-5-yl)-ureido]-3-chloro-phenoxy}-7-methoxyquinolin-6-carboxylic acid methylamide], the IC50 in assay [1] was 24.1 nM; in assay [2], 5.25 nM; in assay [3], 1.34 nM; in assay [4], 5.43 nM; in assay [5], 516 nM; in assay [6], 4.09 nM. Also, the IC50 in assay [7] came out at 12.9 nM; in assay [8], 1.06 nM.
Take `COCCNC(=O)c1cc2c(Oc3ccc(NC(=O)Nc4cc(C(C)(C)C)on4)c(Cl)c3)ccnc2cc1OC` [Compound 17, 4-{4-[3-(5-tert-butyl-isoxazol-3-yl)-ureido]-3-chloro-phenoxy}-7-methoxyquinolin-6-carboxylic acid (2-methoxy-ethyl)-amide]: the IC50 in assay [1] is 84.9 nM; in assay [2], 7.72 nM; in assay [3] it was 3.9 nM; in assay [4], 71.4 nM; in assay [5] it was 770 nM; in assay [6], 23.1 nM. For the same compound, the values for the IC50 in assay [7] and in assay [8] were 168 nM and 31.4 nM, respectively.
Turning to `COc1cc2nccc(Oc3ccc(NC(=O)Nc4cc(C(C)(C)C)on4)c(Cl)c3)c2cc1[N+](=O)[O-]` [Compound 18, 1-(5-tert-butyl-isoxazol-3-yl)-3-[2-chloro-4-(7-methoxy-6-nitro-quinolin-4-yloxy)-phenyl]-urea], the IC50 was 638 nM in assay [1]; 410 nM in assay [2]; 6.73 nM in assay [3]; 59.6 nM in assay [4]; > 1000 nM in assay [5]; 83.6 nM in assay [6]. The IC50 in assay [7] worked out at 68 nM; in assay [8], 224 nM.
For `COc1cc2nccc(Oc3ccc(NC(=O)Nc4cc(C(C)(C)C)on4)c(Cl)c3)c2cc1C#N` [Compound 19, 1-(5-tert-butyl-isoxazol-3-yl)-3-[2-chloro-4-(6-cyano-7-methoxy-quinolin-4-yloxy)-phenyl]-urea], the IC50 was > 1000 nM in assay [1]; 632 nM in assay [2]; 46.8 nM in assay [3]; 131 nM in assay [4]; > 1000 nM in assay [5]; 150 nM in assay [6]. Besides, the IC50 in assay [7] was 172 nM; in assay [8], 788 nM.
On to `COc1cc2nccc(Oc3ccc(NC(=O)Nc4cc(C(C)(C)C)on4)c(Cl)c3)c2cc1NC(C)=O` [Compound 20], for which the IC50 in assay [1] was found to be 13.9 nM; in assay [2], 2.21 nM; in assay [3], 1.14 nM; in assay [4], 22.1 nM; in assay [5], 195 nM; in assay [6], 5.55 nM. Further, the IC50 was determined as 8.71 nM in assay [7] and 1.75 nM in assay [8].
Consider `CCC(=O)Nc1cc2c(Oc3ccc(NC(=O)Nc4cc(C(C)(C)C)on4)c(Cl)c3)ccnc2cc1OC` [Compound 21, N-(4-{4-[3-(5-tert-butyl-isoxazol-3-yl)-ureido]-3-chloro-phenoxy}-7-methoxyquinolin-6-yl)-propionamide], for which the IC50 worked out at 37.5 nM in assay [1]; 7.07 nM in assay [2]; 2.8 nM in assay [3]; 88.9 nM in assay [4]; 398 nM in assay [5]; 26.6 nM in assay [6]. In addition, the IC50 came out at 157 nM in assay [7] and 17.4 nM in assay [8].
As for `C=CC(=O)Nc1cc2c(Oc3ccc(NC(=O)Nc4cc(C(C)(C)C)on4)c(Cl)c3)ccnc2cc1OC` [Compound 22, N-(4-{4-[3-(5-tert-butyl-isoxazol-3-yl)-ureido]-3-chloro-phenoxy}-7-methoxyquinolin-6-yl)-acrylamide], the IC50 in assay [1] came to 18.7 nM; in assay [2], 16.9 nM; in assay [3], 8.54 nM; in assay [4] it was 91.7 nM; in assay [5] it was 610 nM; in assay [6] it was 61.7 nM. Further, the values for the IC50 in assay [7] and in assay [8] were 27.8 nM and 40.7 nM, respectively.
As to `COc1cc2nccc(Oc3ccc(NC(=O)Nc4cc(C(C)(C)C)on4)c(Cl)c3)c2cc1NC(=O)C1CCCC1` [Compound 23, cyclopentane carboxylic acid (4-{4-[3-(5-tert-butyl-isoxazol-3-yl)-ureido]-3-chloro-phenoxy}-7-methoxyquinolin-6-yl)-amide], the IC50 in assay [1] is 214 nM; in assay [2], 94.9 nM; in assay [3], 10.5 nM; in assay [4], 547 nM; in assay [5] it was > 1000 nM; in assay [6], 436 nM. The IC50 in assay [7] stood at 420 nM; in assay [8] it was 227 nM.
Regarding `COc1cc2nccc(Oc3ccc(NC(=O)Nc4cc(C(C)(C)C)nn4C)c(Cl)c3)c2cc1C(N)=O` [Compound 26, 4-{4-[3-(5-tert-butyl-2-methyl-2H-pyrazol-3-yl)-ureido]-3-chloro-phenoxy}-7-methoxyquinolin-6-carboxamide], the IC50 came to 10.9 nM in assay [1]; 1.35 nM in assay [2]; 0.07 nM in assay [3]; 16.9 nM in assay [4]; 524 nM in assay [5]; 5.16 nM in assay [6]. Besides, the IC50 was 8.2 nM in assay [7] and 9.78 nM in assay [8].
As for `CCn1nc(C(C)(C)C)cc1NC(=O)Nc1ccc(Oc2ccnc3cc(OC)c(C(N)=O)cc23)cc1Cl` [Compound 27, 4-{4-[3-(5-tert-butyl-2-ethyl-2H-pyrazol-3-yl)-ureido]-3-chloro-phenoxy}-7-methoxyquinolin-6-carboxamide], the IC50 in assay [1] is 11.6 nM; in assay [2] it was 3.92 nM; in assay [3] it was 0.12 nM; in assay [4], 8.44 nM; in assay [5] it was 351 nM; in assay [6] it was 9.23 nM. The IC50 in assay [7] turned out to be 9.2 nM; in assay [8], 9.03 nM.
In the case of `C=CC(=O)n1nc(C(C)(C)C)cc1NC(=O)Nc1ccc(Oc2ccnc3cc(OC)c(C(N)=O)cc23)cc1Cl` [Compound 28, 4-{4-[3-(2-acryloyl-5-tert-butyl-2H-pyrazol-3-yl)-ureido]-3-chloro-phenoxy}-7-methoxyquinolin-6-carboxamide], the IC50 in assay [1] stood at 24.2 nM; in assay [2], 6.53 nM; in assay [3], 0.73 nM; in assay [4] it was 32.5 nM; in assay [5], 698 nM; in assay [6], 25.1 nM. The IC50 in assay [7] is 17.1 nM; in assay [8], 17.4 nM.
